Measured values: paper PMC7523589 (Analytical methods : advancing methods and applications, 2020)
Values belong to the molecule of their own block, whether it stands above or below them.

Key:
[1] = biological target: full-length Plk1 (Homo sapiens, UniProt P53350); experiment: fluorescence recovery assay, competition of inhibitors with probe 4; assay type: binding
[2] = biological target: T1, Plk1 (Homo sapiens, UniProt P53350); experiment: fluorescence recovery assay, probe binding as a function of Plk1 concentration
T1 sequence (P53350 whole entry): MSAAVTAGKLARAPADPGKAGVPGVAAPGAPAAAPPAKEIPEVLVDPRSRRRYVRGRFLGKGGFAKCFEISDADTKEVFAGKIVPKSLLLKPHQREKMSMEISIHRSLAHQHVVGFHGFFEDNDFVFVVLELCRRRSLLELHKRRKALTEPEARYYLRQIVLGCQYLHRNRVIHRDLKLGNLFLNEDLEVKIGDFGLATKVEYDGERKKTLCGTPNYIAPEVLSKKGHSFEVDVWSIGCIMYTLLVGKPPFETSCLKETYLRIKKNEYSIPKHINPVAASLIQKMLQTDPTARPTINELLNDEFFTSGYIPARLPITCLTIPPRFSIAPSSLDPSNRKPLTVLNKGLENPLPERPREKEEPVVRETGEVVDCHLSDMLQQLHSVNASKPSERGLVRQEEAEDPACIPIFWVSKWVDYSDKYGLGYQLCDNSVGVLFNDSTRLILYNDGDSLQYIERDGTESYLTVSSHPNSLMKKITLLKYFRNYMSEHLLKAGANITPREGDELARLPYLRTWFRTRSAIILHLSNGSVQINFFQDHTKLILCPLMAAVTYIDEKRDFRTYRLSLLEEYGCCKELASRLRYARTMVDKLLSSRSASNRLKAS

[3] = biological target: T1, Plk1; conditions: read-out: Reported Plk1 IC50 values; cited from earlier work

full-length Plk1, sequence (P53350 whole entry): as above

IC50 [1]: 31 ± 0.67 nM
Molecule: CC[C@@H]1C(=O)N(C)c2cnc(Nc3ccc(C(=O)N[C@H]4CC[C@H](N5CCN(CC6CC6)CC5)CC4)cc3OC)nc2N1C(C)C [BI6727]

Kd ([2]; 10 nM of probe 4): 32 ± 0.78 nM
Kd ([2]; 20 nM of probe 4): 33 ± 0.98 nM
Kd ([2]; 30 nM of probe 4): 32 ± 1.1 nM
Kd ([2]; 40 nM of probe 4): 38 ± 1.8 nM
Kd ([2]; incubation time 15 minutes): 42 ± 1.5 nM
Kd ([2]; incubation time 30 minutes): 34 ± 1.1 nM
Kd ([2]; incubation time 60 minutes): 32 ± 1.5 nM
Molecule: FITC-PEG-Lys(BI2536) [compound 4]

Molecule: SBE13
IC50 [3]: 0.2 nM
